US8828680B2, “Combined rapid susceptibility assay and microorganism identification system” (Siemens Healthcare Diagnostics Inc., priority 1999, dated 2014)
Values after ≈ are worked out from the molar mass of the structure shown.

How the values were obtained:
Assay type in all cases: cell-based
[1] = test system: C. freundii 87; assay: New AST method using bichromatic absorbance between 405 and 620 nm
Text: (§1) The goals of the new AST method are to achieve higher precision, greater accuracy and increased reliability by using (1) quantitative spectral information derived from bichromatic measurements, (2) a dynamic breakpoint for individual drug wells based on their initial condition, and (3) a susceptibility index for determining susceptibility. The new AST method includes the following processes.
(§2) Bichromatic absorbance is the difference between the primary wavelength with significant turbidity and the secondary wavelength with little turbidity. For Gram positive organisms, the wavelengths are 505 and 620 for all drugs.
(§3) For Gram negative organisms, the wavelengths are 405 and 620 nm for most drugs except Nitrofurantoin and tetracycline. The wavelengths for Nitrofurantoin and tetracycline are 505 and 620 nm.
(§4) The susceptibility index (SI) is the ratio of the initial and final absorbance after correction for system drift. The susceptibility indexes are calculated for each drug well and the growth well (positive control well). The following formula (equation 1) is used to calculate the susceptibility index:
(§5) where • Di=Initial bichromatic absorbance from drug well • Df=Final bichromatic absorbance from drug well • Ci=Initial bichromatic absorbance from control ([…]) well • Cf=Final bichromatic absorbance from control (negative control) well
(§6) Compare susceptibility indices from drug wells to determine growth/no growth. A value of 1.05 is presently preferred for use as a cutoff to determine growth. The value may be adjusted as assay procedures undergo further refinement but is nonetheless expected to retain a value approaching 1.
(§7) In the current conventional MIC methods used in many art-recognized systems, the MIC is the first no growth well after the last growth well in the dilution series. Difficulties in interpretation occur, however, when there are “no growth” wells interspersed amongst “growth” wells in the same series. Conventional methods treat these no growth wells as “skipped” wells and the MIC is adjusted according to the number of skipped wells. In the methods and systems of the invention, however, an algorithm is applied which more accurately identifies which wells are true skipped wells. In addition, the algorithm is applied to determine which wells are contaminated. Use of the new system increases the accuracy of the read substantially.

[2] = test system: C. freundii 87; assay: Manual read MIC; settings: Citrobacter freundii; C. freundii 87, manual read
Text: (§8) (see, e.g., Dried Gram Negative Procedural Manual, supra, at page 1 (and references cited therein).) Appropriate specimens should be collected, transported, and placed on primary isolation media according to procedures recommended in the Manual of Clinical Microbiology (Murray, et al. (eds.), Manual of Clinical Microbiology, 6th ed., American Society for Microbiology, Washington, D.C. (1995)). Subsequently, a standard, automated assay may thus be conducted essentially as follows.
(§9) The panels may be read manually (e.g. using a MICROSCAN® Microdilution Viewer, Dade MicroScan Inc., West Sacramento, Calif.) and results recorded on an appropriate worksheet. The panels may also—or alternatively—be read instrumentally, e.g., using a TOUCHSCAN®-SR, AUTOSCAN®-4, or WALKAWAY® system (Dade MicroScan Inc., West Sacramento, Calif.). Refer to the appropriate operator's manual for reading panels using instrumentation.

[3] = test system: C. freundii 87; assay: Conventional AST method using absorbance at 620 nm; settings: Citrobacter freundii, 3 hrs and 16 hrs, breakpoint 1800
Experimental: In the conventional method, the analyte is turbidity and its measurement at 620 nm wavelength is used to quantify growth. The current conventional AST method determines growth by comparing the calculated processed value, which is the 620 nm absorbance difference between two (2) hours and forty-five minutes and 16 or 18 hours against a breakpoint. This breakpoint was determined by testing 100-200 isolates and reading results manually or via instruments and correlating the reads of those isolates to their processed values. […] Subsequently, a standard, automated assay may thus be conducted essentially as follows.

[4] = test system: C. freundii 104; assay: Conventional AST method using absorbance at 620 nm; settings: Citrobacter freundii, 4 hrs and 16 hrs, breakpoint 400
Experimental: The monochromatic method of spectral analysis involves selecting a single wavelength that contains a unique spectral feature for the analyte of interest. In the conventional method, the analyte is turbidity and its measurement at 620 nm wavelength is used to quantify growth. The current conventional AST method determines growth by comparing the calculated processed value, which is the 620 nm absorbance difference between two (2) hours and forty-five minutes and 16 or 18 hours against a breakpoint. This breakpoint was determined by testing 100-200 isolates and reading results manually or via instruments and correlating the reads of those isolates to their processed values. This approach has limited capability because the processed value is not corrected for system-dependent variations and the breakpoint is not adaptable to system change. […] (see, e.g., Dried Gram Negative Procedural Manual, supra, at page 1 (and references cited therein).) Appropriate specimens should be collected, transported, and placed on primary isolation media according to procedures recommended in the Manual of Clinical Microbiology (Murray, et al. (eds.), Manual of Clinical Microbiology, 6th ed., American Society for Microbiology, Washington, D.C. (1995)). Subsequently, a standard, automated assay may thus be conducted essentially as follows.

[5] = test system: C. freundii 104; assay: New AST method using bichromatic absorbance between 405 and 620 nm; settings: for Susceptibility Index (D6 − C6)/(D3 − C3): 6 hrs vs 3 hrs
Text: as §1, §2, §3, §4, §5, §6, §7

[6] = test system: C. freundii 104; assay: Manual read MIC; settings: Citrobacter freundii; C. freundii 104, manual read
Text: as §8, §9

[7] = Citrobacter freundii, bichromatic 405-620 nm, 3 hrs and 6 hrs

| MIC [2] [µg/mL] | MIC [6] [µg/mL] | SMILES | MIC [1, 7] [µg/mL] | Susceptibility Index (D6 − C6)/(D3 − C3) ([1]; drug level 256 μg/mL, 6 hrs vs 3 hrs) | MIC [3] [µg/mL] | MIC [4] [µg/mL] | MIC [5, 7] [µg/mL] | Susceptibility Index (D6 − C6)/(D3 − C3) ([5]; drug level 0.5 μg/mL) | Susceptibility Index (D6 − C6)/(D3 − C3) ([5]; drug level 1 μg/mL) | Susceptibility Index (D6 − C6)/(D3 − C3) ([5]; drug level 2 μg/mL) | Susceptibility Index (D6 − C6)/(D3 − C3) ([5]; drug level 4 μg/mL) | Susceptibility Index (D6 − C6)/(D3 − C3) ([5]; drug level 8 μg/mL) |
| --- | --- | --- | --- | --- | --- | --- | --- | --- | --- | --- | --- | --- |
| > 256 |  | Cc1cc(NS(=O)(=O)c2ccc(N)cc2)no1 [Sulfamethoxazole] | > 256 | 1639/1064 = 1.5 | < 256 |  |  |  |  |  |  |  |
|  | 2 (≈ 4.28 µM) | NC[C@H]1O[C@H](O[C@H]2[C@H](O)[C@@H](O[C@H]3O[C@H](CO)[C@@H](O)[C@H](N)[C@H]3O)[C@H](N)C[C@@H]2N)[C@H](N)C[C@@H]1O [Tobramycin] |  |  |  | 2 (≈ 4.28 µM) | 2 (≈ 4.28 µM) | 3696/1205 = 3.0 | 1898/1201 = 1.6 | 1145/1180 = 1.0 | 1096/1136 = 1.0 | 1196/1237 = 1.0 |
